Experimental data published in patent US20250186520A1, “ONCOLYTIC VIRUS COMPOSITIONS AND METHODS FOR THE TREATMENT OF CANCER” (priority 2020, published 2025).

Tests used:
[1] = test system: Gli36ΔEGFR cells; assay: NK cell cytotoxicity (51Cr release) against TMZ-pretreated cells; assay type: cell-based, human
Method: TMZ, which is an imidazotetrazine that is converted to a compound capable of alkylating DNA, interferes with DNA replication and leading to cytotoxicity in proliferating cells, and has been in clinical trials for treating GBM. To detect whether OV-Cmab-CCL5 enhanced TMZ function for treating GBM, the combination therapy with OV-Cmab-CCL5 and TMZ in vivo and in vitro was performed. Gli36ΔEGFR cells were treated with 1 μM TMZ overnight, and the pretreated cells were ^51Cr-labeled and used as target cells. These cells were then incubated with 5 μg/ml Cmab-hCCL5 or vehicle for 30 min. The effector NK cells and target cells were then co-cultured at the ratios of 40:1, 20:1, and 10:1 for 4 hours and assayed for cytotoxicity. […] This function was also detected as induced by the supernatants from OV-Cmab-hCCL5-infected Gli36ΔEGFR cells. Consistent data were collected.

[2] = target: T1, EGFR (wtEGFR U251T2 and EGFRvIII U87ΔEGFR GBM cells) (Homo sapiens, UniProt P00533); assay: EGFR binding assay and CCL5 expression assay by flow cytometry (anti-human Fc / anti-human CCL5)
T1 construct: U251T2 GBM cells, which express wild type EGFR (wtEGFR), U87ΔEGFR GBM cells, which express EGFRvIII; endogenous in cells; host or cells: U251T2 (wtEGFR) and U87ΔEGFR (EGFRvIII) human GBM cells
Method: (§1) U251T2, U87ΔEGFR, and A4780 cells were pre-blocked with 2% BSA and incubated with 1, 5, or 10 μg/ml purified Cmab-hCCL5 or 1, 5, or 10 μg/ml human IgG1 isotype control for 30 min. Murine CT2A-hEGFR cells were pre-blocked with 2% BSA and then incubated with 1, 5, or 10 μg/ml purified Cmab-mCCL5 or 1, 5, or 10 μg/ml human IgG1 isotype control for 30 min. After incubation, all cells were washed twice, and human cell lines were stained with APC-conjugated anti-human Fc (Jackson ImmunoResearch, cat #209-605-098) or APC-conjugated anti-human CCL5 (Biolegend, cat #515506, 149103) antibodies, whereas the murine CT2A-hEGFR cells were stained with APC-conjugated anti-human Fc or PE-conjugated anti-mouse CCL5 antibodies, for 20 min. The stained cells were analyzed using a Fortessa X20 flow cytometer (BD Biosciences).

[3] = test system: EGFR (wtEGFR U251T2 and EGFRvIII U87ΔEGFR GBM cells); assay: as above; details: protein purified from CHO cells
Method: as §1

[4] = test system: EGFR^− A2780 cells; assay: EGFR binding assay by flow cytometry on EGFR-negative cells; design: species or system human; details: protein purified from CHO cells; vs IgG1 isotype control
Method: as §1

[5] = test system: human NK cells, macrophages, CD4^+ T cells, and CD8^+ T cells; assay: Transwell cell migration assay, human immune cells; assay type: cell-based; details: protein purified from CHO cells; vs IgG1 isotype control
Method: The migration capability of NK cells, T cells, and macrophages was determined using transwell chambers (Corning). Serum-starved NK cells, T cells or macrophages (10^6/well) were seeded to an upper chamber. Recombinant human (rh) CCL5, recombinant mouse (rm) CCL5, purified Cmab-hCCL5 or Cmab-mCCL5, or the supernatant containing Cmab-hCCL5 or Cmab-mCCL5 secreted from OV-Cmab-hCCL5- or OV-Cmab-mCCL5-infected U251T2 GBM cells was added to the lower chamber. The chambers were incubated at 37° C. in 5% CO2 for 12 h. Cells that migrated to the lower face of the porous membrane in the lower chamber were counted. For the T cells and NK cells, the pore size of the transwell membrane used in this assay was 3 μm as previously described (61,62). For the macrophages, the pore size of the transwell membrane used in this assay was […] as previously described (63).

[6] = test system: U251T2 (wtEGFR), GBM30, Gli36ΔEGFR (EGFRvIII) GBM cells; assay: NK cell ADCC, 51Cr release assay, EGFR+ targets; assay type: cell-based, human; details: purified protein; wtEGFR and EGFRvIII tumor cells; vs IgG1 isotype control
Method: (§2) NK cell cytotoxicity was evaluated as previously described (13,64,65). Briefly, U251T2, GBM30, Gli36ΔEGFR, and CT2A-hEGFR cells were used as target cells. The target cells were labeled with ^51Cr for 1 h, followed by incubation with 5 μg/ml or 10 μg/ml of the Cmab-hCCL5 fusion protein or IgG1 isotype control for 30 min. The labeled target cells preincubated with the Cmab-hCCL5 fusion protein or IgG1 were co-cultured with isolated human primary NK cells at different effector:target ratios at 37° C. for 4 h. Release of ^51Cr was measured as counts per minute (cpm) with a MicroBeta(2) microplate radiometric counter (Perkin Elmer, Waltham, MA). […] The cell lysis percentages were calculated using the standard formula: 100×(cpm experimental release−cpm spontaneous release)/(cpm maximal release−cpm spontaneous release). […] The expression of CD69 and granzyme B, NK cell activation markers, were measured after 6-hour co-culture of NK cells and GBM30 cells with 5 μg/ml or 10 μg/ml of Cmab-hCCL5 at a ratio of 1:1 with a flow cytometer after the cells were stained with the anti-CD56 (BD, cat #557919) and anti-CD69 (BD, cat #562883) or anti-granzyme B (BD, cat #563388) antibodies. Following similar procedures, mouse CD69 was measured by an anti-CD69 (BD, cat #564683) antibody, and NK cells were marked by an anti-NKp46 (Biolegend, cat #137618) antibody.

[7] = test system: human NK cells co-cultured with GBM30 cells; assay: NK cell activation assay (CD69, granzyme B by flow cytometry); assay type: cell-based; details: purified protein
Method: as §2

[8] = test system: GBM30 cells; assay: Flow cytometry-based phagocytosis (ADCP) assay, human macrophages; assay type: cell-based; details: purified protein; vs IgG1 isotype control or vehicle
Method: For the phagocytosis assay of primary human macrophages, GBM30 cells stained with CFSE (Thermo Fisher, cat #C34554) were used as target cells. Human macrophages and target cells were co-cultured at a ratio of 1:2 for 6 hours with 5 μg/ml or 10 μg/ml of the Cmab-hCCL5 fusion protein or IgG1 isotype control in a humidified, 5% CO2 incubator at 37° C. in ultra-low-attachment 96-well U-bottom plates (Corning) in serum-free 1640 media (Life Technologies). The co-cultured cells were harvested by centrifuging at 400×g for 5 min at 4° C. and stained with an anti-human CD45 antibody (Biolegend, cat #368516) to identify macrophages. All flow cytometry data were collected using a Fortessa X20 flow cytometer (BD Biosciences). Phagocytosis was measured as the number of CD45^+CFSE^+ macrophages, quantified as a percentage of the total CD45^+ cells.

[9] = test system: human macrophages co-cultured with GBM30 cells; assay: Quantitative PCR of human macrophage cytokine genes; assay type: cell-based; details: vs IgG1 isotype control
Method: For evaluating the effect of Cmab-hCCL5 on mRNA levels of typical human macrophage cytokine genes, human macrophages and GBM30 cells were co-cultured at a ratio of 1:1 for 6 hours with or without 5 μg/ml Cmab-hCCL5. The macrophages were stained with anti-human CD45 antibody and sorted using an Aria Fusion flow cytometer (BD Biosciences). The total RNA was extracted from the sorted macrophages for measuring the mRNA levels of human IL1B, IL6, IL12A, and NOS2 genes with their corresponding primers. 18s rRNA was used as an internal control.

**Q.** For `Cn1nnc2c(C(N)=O)ncn2c1=O` [TMZ, Temozolomide, reference compound], which NK cell cytotoxicity ([1]; 1 μM TMZ overnight pre-treatment alone) is on record?
**A.** enhanced NK cell cytotoxicity

**Q.** Which results are given for “Cmab-hCCL5: bispecific knob-into-hole human IgG1 Fc fusion protein: cetuximab scFv arm and human CCL5 arm”?
**A.** secretion of cetuximab or CCL5, comparison of Cmab-CCL5 and reverse-order CCL5-Cmab ([2]; FIGS. 14C, 14D: flow cytometry on U251T2 with anti-Fc / anti-hCCL5): no difference; binding to surface-expressed EGFR (anti-Fc and anti-CCL5 antibodies) ([2]; protein produced by OV-Cmab-hCCL5-infected U251T2 GBM cells): confirmed to bind to surface-expressed EGFR; CCL5 on cell surface (anti-CCL5 antibody) ([3]; EGFR^+ cells): detected CCL5 on EGFR^+ cell surfaces; binding to tumor cells (anti-human Fc antibody) ([3]; U251T2 (wtEGFR) and U87ΔEGFR (EGFRvIII) cells): selectively bound to tumor cells expressing wtEGFR or EGFRvIII; binding to EGFR^− A2780 cells (anti-human Fc antibody) [4]: indistinguishable from that of IgG1 isotype control; migration of human NK cells, macrophages, CD4^+ and CD8^+ T cells [5]: dose-dependent increase in the migration; NK cell ADCC [6]: significantly induced NK cell ADCC; CD69 expression on NK cells ([7]; 6 hours, vs IgG1 isotype control or GBM30 cells alone): significantly increased the expression of CD69; granzyme B expression in NK cells ([7]; relative to controls): increased granzyme B expression; ADCP against GBM30 cells by human macrophages [8]: induced a significantly higher level of ADCP; cytokine expression in human macrophages (real-time RT-PCR) [9]: significantly increased IL-1B, IL-6, IL-12, and NOS2 expression; NK cell cytotoxicity ([1]; 1 μM TMZ pre-treatment plus 5 μg/ml Cmab-hCCL5, vs either treatment alone): significantly higher degree of NK cell cytotoxicity
